The values that follow come from ChEMBL document CHEMBL5291721, “A preclinical secondary pharmacology resource illuminates target-adverse drug reaction associations of marketed drugs” (Nat Commun, 2023).

A word on the AC50: it is the concentration giving half of the maximal activity seen. A high value points to activity only at high concentration.

The target in one test is T1, Glucocorticoid receptor (Homo sapiens, UniProt P04150). Also: assay procedure not described here.
T1 sequence (P04150 whole entry): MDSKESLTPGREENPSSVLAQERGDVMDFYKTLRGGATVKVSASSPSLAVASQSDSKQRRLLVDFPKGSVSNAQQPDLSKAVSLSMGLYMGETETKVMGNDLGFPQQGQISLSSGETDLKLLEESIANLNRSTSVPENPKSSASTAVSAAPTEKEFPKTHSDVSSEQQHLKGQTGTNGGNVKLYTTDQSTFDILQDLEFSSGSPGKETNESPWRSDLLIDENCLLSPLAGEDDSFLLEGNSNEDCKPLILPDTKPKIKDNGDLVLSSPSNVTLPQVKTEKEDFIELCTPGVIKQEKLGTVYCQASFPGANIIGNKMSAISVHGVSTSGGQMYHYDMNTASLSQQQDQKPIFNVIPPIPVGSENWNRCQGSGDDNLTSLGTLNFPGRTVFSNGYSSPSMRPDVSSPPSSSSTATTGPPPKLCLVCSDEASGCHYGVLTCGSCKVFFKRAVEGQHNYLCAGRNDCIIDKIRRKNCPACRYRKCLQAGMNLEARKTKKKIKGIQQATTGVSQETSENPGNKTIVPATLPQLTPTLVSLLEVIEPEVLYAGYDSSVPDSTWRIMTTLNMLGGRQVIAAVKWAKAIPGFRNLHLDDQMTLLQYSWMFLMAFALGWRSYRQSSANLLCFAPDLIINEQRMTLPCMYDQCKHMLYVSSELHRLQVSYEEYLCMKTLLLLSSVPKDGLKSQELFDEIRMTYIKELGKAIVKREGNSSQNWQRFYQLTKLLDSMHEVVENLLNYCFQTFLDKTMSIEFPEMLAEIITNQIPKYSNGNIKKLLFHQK
The class given is functional.

Test [1] addresses T2, Alpha-2A adrenergic receptor (Homo sapiens, UniProt P08913).
T2 sequence (P08913 whole entry): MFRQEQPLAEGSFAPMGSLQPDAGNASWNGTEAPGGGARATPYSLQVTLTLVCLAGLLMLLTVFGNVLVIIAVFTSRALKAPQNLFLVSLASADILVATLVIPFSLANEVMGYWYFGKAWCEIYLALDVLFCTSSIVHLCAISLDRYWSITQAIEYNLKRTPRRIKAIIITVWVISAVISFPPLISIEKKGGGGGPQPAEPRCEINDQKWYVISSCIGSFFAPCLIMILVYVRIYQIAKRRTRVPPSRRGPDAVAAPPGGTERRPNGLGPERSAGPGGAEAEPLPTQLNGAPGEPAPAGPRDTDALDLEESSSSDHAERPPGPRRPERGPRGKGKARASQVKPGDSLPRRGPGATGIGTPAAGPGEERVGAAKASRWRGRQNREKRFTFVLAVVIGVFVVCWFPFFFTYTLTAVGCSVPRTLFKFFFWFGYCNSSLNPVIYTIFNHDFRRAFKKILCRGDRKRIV

Test [2] deals with T3, Alpha-2C adrenergic receptor (Homo sapiens, UniProt P18825).
T3 sequence (P18825 whole entry): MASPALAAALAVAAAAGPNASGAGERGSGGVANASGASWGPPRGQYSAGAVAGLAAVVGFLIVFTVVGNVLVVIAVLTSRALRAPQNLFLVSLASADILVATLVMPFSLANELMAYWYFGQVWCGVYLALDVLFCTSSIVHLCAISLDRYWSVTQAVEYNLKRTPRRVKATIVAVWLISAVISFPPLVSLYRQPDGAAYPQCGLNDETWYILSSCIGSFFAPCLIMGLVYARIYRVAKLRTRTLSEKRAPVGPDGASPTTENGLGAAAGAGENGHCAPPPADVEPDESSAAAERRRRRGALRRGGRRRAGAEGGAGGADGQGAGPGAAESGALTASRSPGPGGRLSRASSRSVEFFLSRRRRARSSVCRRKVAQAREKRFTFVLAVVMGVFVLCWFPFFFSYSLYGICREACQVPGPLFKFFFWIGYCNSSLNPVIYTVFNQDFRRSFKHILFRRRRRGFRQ
The class given is functional.

The target of the next test is T4, Androgen receptor (Homo sapiens, UniProt P10275). Also: assay procedure not described here.
T4 sequence (P10275 whole entry): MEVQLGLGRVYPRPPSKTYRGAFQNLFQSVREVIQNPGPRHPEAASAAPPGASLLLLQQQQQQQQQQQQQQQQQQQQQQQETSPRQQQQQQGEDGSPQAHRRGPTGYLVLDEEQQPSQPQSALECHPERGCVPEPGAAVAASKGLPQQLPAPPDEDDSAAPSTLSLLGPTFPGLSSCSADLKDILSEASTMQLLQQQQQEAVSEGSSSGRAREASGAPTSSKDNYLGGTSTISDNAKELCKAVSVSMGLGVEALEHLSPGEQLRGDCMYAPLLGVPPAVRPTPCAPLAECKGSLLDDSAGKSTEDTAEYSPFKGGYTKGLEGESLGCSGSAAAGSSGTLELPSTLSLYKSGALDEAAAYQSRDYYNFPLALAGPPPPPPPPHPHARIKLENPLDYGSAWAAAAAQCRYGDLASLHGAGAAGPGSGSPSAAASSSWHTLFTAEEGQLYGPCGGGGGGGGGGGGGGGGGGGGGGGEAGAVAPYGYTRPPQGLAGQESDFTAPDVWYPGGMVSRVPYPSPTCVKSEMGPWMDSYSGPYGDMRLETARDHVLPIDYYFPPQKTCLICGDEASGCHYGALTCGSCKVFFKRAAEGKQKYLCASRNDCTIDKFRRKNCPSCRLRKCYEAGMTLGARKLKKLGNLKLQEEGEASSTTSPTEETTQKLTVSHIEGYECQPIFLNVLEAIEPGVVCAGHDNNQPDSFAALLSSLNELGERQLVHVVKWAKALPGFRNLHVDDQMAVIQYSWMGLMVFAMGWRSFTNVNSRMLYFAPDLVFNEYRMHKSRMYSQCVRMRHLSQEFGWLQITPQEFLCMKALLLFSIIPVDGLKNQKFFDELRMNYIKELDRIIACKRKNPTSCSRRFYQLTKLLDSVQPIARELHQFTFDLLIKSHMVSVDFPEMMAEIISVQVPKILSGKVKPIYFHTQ

Test [3] deals with Sodium-dependent serotonin transporter (Homo sapiens, UniProt P31645).
Chain of Sodium-dependent serotonin transporter (P31645 whole entry): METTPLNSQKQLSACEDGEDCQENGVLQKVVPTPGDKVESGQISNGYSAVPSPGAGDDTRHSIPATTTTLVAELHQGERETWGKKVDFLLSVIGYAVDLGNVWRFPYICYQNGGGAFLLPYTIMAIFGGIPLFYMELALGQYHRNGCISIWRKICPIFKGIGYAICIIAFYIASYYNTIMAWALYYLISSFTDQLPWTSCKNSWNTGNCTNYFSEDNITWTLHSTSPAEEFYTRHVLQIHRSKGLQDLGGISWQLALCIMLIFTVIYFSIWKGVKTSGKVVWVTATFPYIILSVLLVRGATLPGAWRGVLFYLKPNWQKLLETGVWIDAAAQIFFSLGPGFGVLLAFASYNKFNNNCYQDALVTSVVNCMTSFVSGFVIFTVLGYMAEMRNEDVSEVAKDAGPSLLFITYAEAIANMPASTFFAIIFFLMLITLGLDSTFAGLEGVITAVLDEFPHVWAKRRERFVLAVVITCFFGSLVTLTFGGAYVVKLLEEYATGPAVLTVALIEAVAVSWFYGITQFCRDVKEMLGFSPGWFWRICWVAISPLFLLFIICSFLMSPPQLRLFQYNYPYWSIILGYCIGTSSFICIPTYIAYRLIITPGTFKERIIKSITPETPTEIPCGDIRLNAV

For `COc1cccc2c1C(=O)c1c(O)c3c(c(O)c1C2=O)C[C@@](O)(C(C)=O)C[C@@H]3O[C@H]1C[C@H](N)[C@H](O)[C@H](C)O1` [DAUNORUBICIN], the AC50 on Glucocorticoid receptor was more than 10000 nM.
As to `CC(C)CC(N(C)C)C1(c2ccc(Cl)cc2)CCC1` (stereo not given) [SIBUTRAMINE], the AC50 in test [1] is 2140 nM; in test [2], 758 nM.
As for COLISTIN, the AC50 (on Androgen receptor; in test [3]) was more than 30000 nM each time.
